Assay results as given in patent US10399966B2, “Compounds for treatment of trypanosomes and neurological pathogens and uses thereof” (The University of North Carolina at Chapel Hill, priority 2016, dated 2019).
Like-named read-outs stand apart in the source and are kept apart here.

Assays:
human hepatocytes HepG2 = test: Cytotoxicity against HepG2 cells; conditions: for EC50: Homo sapiens, HepG2, read-out: HepG2 EC50; for EC90: read-out: HepG2 EC90, concentration required to inhibit growth by 90%, human hepatocytes
Trypanosoma cruzi = test: Efficacy against T. cruzi in vitro; type: cell-based; conditions: Trypanosoma cruzi, Table 10; for EC50: read-out: T.cruzi EC50; for EC90: read-out: T.cruzi EC90
T. b. brucei = test: In vitro antitrypanosomal activity against T. brucei (growth inhibition); type: cell-based, Trypanosoma brucei; conditions: Trypanosoma brucei; for EC90: read-out: T. brucei EC90
Protocol: Primary hits from the screen were further characterized using a dose-response assay format to determine the EC50. In parallel, the cytotoxicities of these compounds were determined against a proliferating human hepatoma cell line (Huh7). […] SI—CC50/EC50). The final set of confirmed T. brucei hits consisted of 1035 inhibitors. […] In vitro antitrypanosomal activities against T. b. rhodesiense (STIB9000) and cytotoxicities against L6 rat myoblast cells were measured following established protocols (Orhan et al., Mar. Drugs 8:47 (2010). […] All wells including negative controls contained a final of 0.4% DMSO. After incubation of the plates at 37° C. for 48 h, the parasite density was determined using the CellTiter-Glo reagent (Promega), a firefly luciferase assay system that measures the amount of cellular ATP present in plate wells.

[1] = Distribution between mouse plasma and brain (brain penetration, ip); type: in vivo; conditions: for Brain/plasma ratio / [compound]Brain / [compound]Plasma: Table 14, mice, single ip dose 5 mg/kg, one hour post-dose; for [compound]Brain / [compound]Plasma: ± SEM of 3 mice (compound 3: 6 mice); for Kp at 1 h / concentration at 1 h: mouse, intraperitoneal, 5 mg/kg; for Kp at 1 h: brain and plasma, read-out: Average brain/plasma ratio
Protocol: For distribution of compounds between mouse plasma and brain, mice (in groups of 3) were injected with test compounds (5 mg/kg ip) and sacrificed at the indicated times for collection of plasma and brain. Compound was dissolved in 0.4 mL of dosing solution (7% Tween 80, 3% ethanol, 5% DMSO, 0.9% saline) for ip injections. The brains were weighed and immediately frozen, then later homogenized in acetonitrile using a Dounce homogenizer. Prior to animal studies, recovery of test compound was carried out by adding a known amount to a mouse brain in the test extraction solvent and performing the homogenization. Compound recovery was determined by liquid chromatography/tandem mass spectrometry analysis relative to a standard compound amount. Blood was taken from the same mice in heparinized capillary tubes (Fisherbrand) for determination of compound concentration in plasma. The concentration of compound in the brain was obtained by dividing the moles of compound in the brain by the brain volume (obtained from the brain weight assuming 1 g is 1 mL) and correcting for the brain vasculature volume of 2.5% by weight.
Brain penetration studies (Table 14) were initially performed upon compounds 1, 2, and 3, but were expanded to include other compounds in order to explore the SAR of brain penetration. Groups of three mice were given single 5 mg/kg ip doses of the test compounds and were sacrificed 1 h post-dose.

[2] = test system: human lymphocytes CRL-8155; test: Cytotoxicity against CRL-8155 cells; conditions: human lymphoblasts; for EC50: read-out: CRL-8155 EC50, concentration required to inhibit growth by 50%; for EC90: read-out: CRL-8155 EC90, concentration required to inhibit growth by 90%
Protocol: The selectivity of each compound for the parasite over each of the two cell lines was calculated.

[3] = Table 8, read-out: T. brucei EC50
[4] = Table 11, read-out: T. b. brucei EC50
[5] = Table 9, read-out: T. brucei EC50
[6] = brain, Table 8, groups of 3 mice (compound 3: ± SEM of 6 mice), read-out: Average [compound] brain
[7] = plasma, Table 8, groups of 3 mice (compound 3: ± SEM of 6 mice), read-out: Average [compound] plasma

SMILES	EC50 (Trypanosoma cruzi)	EC90 (Trypanosoma cruzi)	melting point	Brain/plasma ratio [1]	[compound]Brain [1]	[compound]Plasma [1]	Kp at 1 h ([1]; Table 8, groups of 3 mice)	concentration at 1 h [1, 6]	concentration at 1 h [1, 7]	EC50 (human hepatocytes HepG2)	EC90 (human hepatocytes HepG2)	EC50 (T. b. brucei; [3])	EC50 (T. b. brucei; [4])	EC50 (T. b. brucei; [5])	EC90 (T. b. brucei; Table 9)	EC50 [2]	EC90 [2]	also measured
O=C(Nc1ccc2sc(-c3ccccc3F)nc2c1)N1CCCC1 [Compound 32, 2-(2-Fluorophenyl)-5-(N-pyrrolidylamido)benzothiazole]	1230 nM	1990 nM	207 to 208 °C	–	–	–	–	–	–	> 50 µM	> 50 µM	–	983 nM	983 nM	1240 nM	> 50 µM	> 50 µM	–
O=C(Nc1ccc2sc(-c3ccccc3F)nc2c1)N1CCCCC1 [Compound 33, 2-(2-Fluorophenyl)-5-(N-piperidylamido)benzothiazole]	843 nM	1120 nM	213 to 215 °C	–	–	–	–	–	–	> 50 µM	> 50 µM	–	935 nM	935 nM	1140 nM	> 50 µM	> 50 µM	–
O=C(Nc1ccc2sc(-c3ccc(F)cc3)nc2c1)N1CCCCC1 [Compound 27, 2-(4-Fluorophenyl)-5-(N-piperidylamido)benzothiazole]	1670 nM	1950 nM	227 to 229 °C	–	–	–	–	–	–	> 50 µM	> 50 µM	–	427 nM	427 nM	737 nM	> 50 µM	> 50 µM	–
O=C(Nc1ccc2sc(-c3ccccc3)nc2c1)c1cccs1 [Compound 18, 2-Phenyl-5-(2-thienylamido)benzothiazole]	–	–	256 °C	–	–	–	–	–	–	> 50 µM	> 50 µM	–	882 nM	882 nM	2130 nM	> 50 µM	> 50 µM	–
O=C(Nc1ccc2sc(-c3cccc(F)c3F)nc2c1)N1CCCC1 [Compound 5, 2-(2,3-Difluorophenyl)-5-(N-pyrrolidylamido)benzothiazole]	578 nM	665 nM	194 to 195 °C	1.76 ± 0.032	2.31 ± 0.746 µM	1.3 ± 0.406 µM	–	–	–	> 50 µM	> 50 µM	–	183 nM	183 nM	394 nM	> 50 µM	> 50 µM	EC50 (T. b. brucei; Table 7, read-out: T. brucei EC50): 183 nM; Kp at 1 h ([1]; Table 7, groups of 3 mice): 1.76 ± 0.055; concentration at 1 h ([1]; brain, Table 7, groups of 3 mice, read-out: Average [compound] brain): 2310 ± 1290 nM; concentration at 1 h ([1]; plasma, Table 7, groups of 3 mice, read-out: Average [compound] plasma): 1300 ± 703 nM
O=C(Nc1ccc2sc(-c3cccc(F)c3)nc2c1)c1ccccc1 [Compound 28, 5-Benzamido-2-(3-fluorophenyl)benzothiazole]	–	–	221 to 222 °C	–	–	–	–	–	–	–	–	–	–	1780 nM	3620 nM	–	–	–
O=C(Nc1ccc2sc(-c3ccc(F)cc3)nc2c1)N1CCCC1 [Compound 26, 2-(4-Fluorophenyl)-5-(N-pyrrolidylamido)benzothiazole]	666 nM	802 nM	211 to 213 °C	–	–	–	–	–	–	> 50 µM	> 50 µM	–	375 nM	375 nM	895 nM	> 50 µM	> 50 µM	–
O=C(Nc1ccc2sc(-c3ccc(F)cc3F)nc2c1)N1CCCC1 [Compound 34, 2-(2,4-Difluorophenyl)-5-(N-pyrrolidylamido)benzothiazole]	1730 nM	2020 nM	223 to 224 °C	–	–	–	–	–	–	–	–	–	–	929 nM	1480 nM	–	–	–

Second part, led by results:

EC50 (Trypanosoma cruzi)	EC90 (Trypanosoma cruzi)	melting point	Brain/plasma ratio [1]	[compound]Brain [1]	[compound]Plasma [1]	Kp at 1 h ([1]; Table 8, groups of 3 mice)	concentration at 1 h [1, 6]	concentration at 1 h [1, 7]	SMILES	EC50 (human hepatocytes HepG2)	EC90 (human hepatocytes HepG2)	EC50 (T. b. brucei; [3])	EC50 (T. b. brucei; [4])	EC50 (T. b. brucei; [5])	EC90 (T. b. brucei; Table 9)	EC50 [2]	EC90 [2]	also measured
429 nM	912 nM	232 to 233 °C	0.510 ± 0.023	1.29 ± 0.156 µM	2.52 ± 0.185 µM	0.51 ± 0.04	1290 ± 270 nM	2520 ± 320 nM	O=C(Nc1ccc2sc(-c3ccc(F)c(F)c3)nc2c1)N1CCCCC1 [Compound 12, 2-(3,4-Difluorophenyl)-5-(N-piperidylamido)benzothiazole]	> 50 µM	> 50 µM	223 nM	223 nM	223 nM	282 nM	> 50 µM	> 50 µM	–
–	–	147 to 149 °C	3.80 ± 0.331	3.00 ± 0.796 µM	0.780 ± 0.202 µM	3.8 ± 0.57	3000 ± 1380 nM	780 ± 350 nM	CN(C)C1CCN(C(=O)Nc2ccc3sc(-c4ccc(F)c(F)c4)nc3c2)C1 (stereo not shown) [Compound 11, 2-(3,4-Difluorophenyl)-5-(3-dimethylamino-N-pyrrolidylamido)benzothiazole]	–	–	1700 nM	–	1700 nM	1950 nM	–	–	–
–	–	227 to 228 °C	7.92 ± 0.693	21.7 ± 1.96 µM	2.81 ± 0.452 µM	7.92 ± 1.2	21700 ± 3400 nM	2810 ± 784 nM	O=C(Nc1ccc2sc(-c3ccc(F)c(F)c3)nc2c1)N1CCC(F)(F)C1 [Compound 9, 2-(3,4-Difluorophenyl)-5-(3,3-difluoro-N-pyrrolidylamido)benzothiazole]	> 50 µM	> 50 µM	934 nM	934 nM	934 nM	1660 nM	> 50 µM	> 50 µM	–
1800 nM	1990 nM	231.5 to 232 °C	1.01 ± 0.081	2.52 ± 0.248 µM	2.51 ± 0.203 µM	1.01 ± 0.14	2530 ± 430 nM	2510 ± 352 nM	O=C(Nc1ccc2sc(-c3ccc(F)c(F)c3)nc2c1)N1CCC(F)CC1 [Compound 13, 2-(3,4-Difluorophenyl)-5-(4-fluoro-N-piperidylamido)benzothiazole]	> 50 µM	> 50 µM	341 nM	341 nM	341 nM	596 nM	> 50 µM	> 50 µM	–
–	–	171 to 175 °C	0.477 ± 0.052	1.97 ± 0.612 µM	4.15 ± 1.368 µM	0.477 ± 0.09	1970 ± 1060 nM	4150 ± 2370 nM	O=C(Nc1ccc2sc(-c3ccc(F)c(F)c3)nc2c1)N1CCC(C(F)(F)F)C1 (stereo not shown) [Compound 10, 2-(3,4-Difluorophenyl)-5-[(3-trifluoromethyl)-N-pyrrolidylamido]benzothiazole]	–	–	1700 nM	–	1690 nM	4880 nM	–	–	–
–	–	189 to 190.5 °C	–	–	–	–	–	–	COC1CCN(C(=O)Nc2ccc3sc(-c4ccc(F)c(F)c4)nc3c2)C1 (stereo not shown) [Compound 39, 2-(3,4-Difluorophenyl)-5-(3-methoxy-N-pyrrolidylamido)benzothiazole]	–	–	–	–	3050 nM	4590 nM	–	–	–
